The results in this text go back to patent US6689790B2, “Substituted triazolopyridine compounds” (Hoffmann-La Roche Inc., priority 2001, dated 2004).

The Ki is the dissociation constant of the complex between target and ligand, obtained from inhibition or displacement.

The target of experiment [1] is T1, human adenosine A2A receptor (Homo sapiens, UniProt P29274).
T1 construct: expressed in transfected cells; host or cells: CHO cells, semliki forest virus expression system; washed membranes
Put plainly: [3H]-SCH-58261 binding assay, human adenosine A2A receptor (CHO cell membranes, SPA). To be noted: for Ki: [3H]-SCH-58261 displacement, read-out: hA2a Ki; for Select. A1/A2a: ratio hA1 Ki / hA2a Ki. As for the experimental part: Human Adenosine A2A Receptor
The human adenosine A2A receptor was recombinantly expressed in chinese hamster ovary (CHO) cells using the semliki forest virus expression system. Cells were harvested, washed twice by centrifugation, homogenized and again washed by centrifugation. The final washed membrane pellet was suspended in a Tris (50 mM) buffer containing 120 mM NaCl, 5 mM KCl, 2 mM CaCl2 and 10 mM MgCl2 (pH 7.4) (buffer A). […] Compounds were tested at 10 concentrations from 10 μM-0.3 nM. All assays were conducted in duplicate and repeated at least two times. Assay plates were incubated for 1 hour at room temperature before centrifugation and then bound ligand determined using a Packard Topcount scintillation counter. IC50 values were calculated using a non-linear curve fitting program and Ki values calculated using the Cheng-Prussoff equation.

In a further experiment the target is T2, hA1 (Homo sapiens, UniProt P30542).
T2 sequence (P30542 1-326): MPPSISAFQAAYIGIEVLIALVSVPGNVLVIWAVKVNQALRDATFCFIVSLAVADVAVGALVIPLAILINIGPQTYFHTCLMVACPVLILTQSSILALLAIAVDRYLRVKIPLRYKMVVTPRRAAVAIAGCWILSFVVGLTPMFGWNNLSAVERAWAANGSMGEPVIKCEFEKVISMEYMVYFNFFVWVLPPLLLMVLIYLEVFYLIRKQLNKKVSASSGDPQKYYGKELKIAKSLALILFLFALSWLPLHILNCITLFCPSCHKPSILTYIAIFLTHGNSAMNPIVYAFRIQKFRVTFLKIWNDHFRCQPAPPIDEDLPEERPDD
The experiment in a line: hA1 receptor affinity (Ki). Type of experiment: binding. The note with it: list of examples 10-108.

Setting [2] is: Ki by Cheng-Prussoff, table of preferred compounds.

Where two headings read alike, the source gives them in different places.

T1 sequence (P29274 whole entry): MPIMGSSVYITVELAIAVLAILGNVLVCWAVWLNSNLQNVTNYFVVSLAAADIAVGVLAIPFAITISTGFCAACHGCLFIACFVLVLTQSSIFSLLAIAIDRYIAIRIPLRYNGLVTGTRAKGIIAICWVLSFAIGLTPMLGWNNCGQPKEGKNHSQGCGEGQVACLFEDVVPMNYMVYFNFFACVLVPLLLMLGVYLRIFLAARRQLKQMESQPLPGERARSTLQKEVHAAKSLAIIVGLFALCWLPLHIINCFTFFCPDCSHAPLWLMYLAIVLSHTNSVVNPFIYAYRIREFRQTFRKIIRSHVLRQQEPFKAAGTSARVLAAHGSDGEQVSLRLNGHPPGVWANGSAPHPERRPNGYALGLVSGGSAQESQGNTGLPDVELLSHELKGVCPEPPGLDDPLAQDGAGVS

As to `C[C@@H]1C[C@@H](C)CN(C(=O)c2cc(N)c3nc(-c4ccc(Br)o4)nn3c2)C1` (stereo in doubt) [Example 14, [8-Amino-2-(5-bromo-furan-2-yl)-[1,2,4]triazolo[1,5-a]pyridin-6-yl]-(3,5-dimethyl-piperidin-1-yl)-methanone], the inhibition constant (Ki) in experiment [1] (setting [2]) turned out to be 0.0372 µM; on hA1 it was 1.19 µM. In addition, in experiment [1], the “Select. A1/A2a” value is given as 32.

For the compound `COCC1CCCN1C(=O)c1cc(N)c2nc(-c3ccco3)nn2c1` (stereo in doubt) [Example 41, (8-Amino-2-furan-2-yl-[1,2,4]triazolo[1,5-a]pyridin-6-yl)-(2-R-methoxymethyl-pyrrolidin-1-yl)-methanone], the figures for the Ki (in experiment [1] (setting [2]); at hA1) were 0.0776 µM and 4.36 µM, respectively. Further, the “Select. A1/A2a” value in experiment [1] was found to be 56.2.

For the compound `CCN(CC)C(=O)c1cc(N)c2nc(-c3ccc(Br)o3)nn2c1` [Example 10, 8-Amino-2-(5-bromo-furan-2-yl)-[1,2,4]triazolo[1,5-a]pyridine-6-carboxylic acid diethylamide], at hA1, the Ki is 2.26 µM.

Turning to `Nc1cc(C(=O)N2CCCC2)cn2nc(-c3ccc(Br)o3)nc12` [Example 11, [8-Amino-2-(5-bromo-furan-2-yl)-[1,2,4]triazolo[1,5-a]pyridin-6-yl]-pyrrolidin-1-yl-methanone], the affinity at hA1 corresponds to a Ki of 1.27 µM.

In turn, `CC1CCCN1C(=O)c1cc(N)c2nc(-c3ccc(Br)o3)nn2c1` (stereo not drawn) [Example 12, [8-Amino-2-(5-bromo-furan-2-yl)-[1,2,4]triazolo[1,5-a]pyridin-6-yl]-(2-methyl-pyrrolidin-1-yl)-methanone] yielded an inhibition constant Ki on hA1 of 1.12 µM.

The compound `CCN(CC)C(=O)C1CCCN(C(=O)c2cc(N)c3nc(-c4ccc(Br)o4)nn3c2)C1` (stereo not drawn) [Example 13, 1-[8-Amino-2-(5-bromo-furan-2-yl)-[1,2,4]triazolo[1,5-a]pyridine-6-carbonyl]-piperidine-3-carboxylic acid diethylamide] had an inhibition constant (Ki) at hA1 of 2.69 µM.

In the case of `CC1CCCCN1C(=O)c1cc(N)c2nc(-c3ccc(Br)o3)nn2c1` (stereo not drawn) [Example 15, [8-Amino-2-(5-bromo-furan-2-yl)-[1,2,4]triazolo[1,5-a]pyridin-6-yl]-(2-methyl-piperidin-1-yl)-methanone], the Ki at hA1 came to 1.94 µM.

Consider `COC[C@@H]1CCCN1C(=O)c1cc(N)c2nc(-c3ccc(Br)o3)nn2c1` [Example 16, [8-Amino-2-(5-bromo-furan-2-yl)-[1,2,4]triazolo[1,5-a]pyridin-6-yl]-(2-methoxymethyl-pyrrolidin-1-yl)-methanone], for which the affinity at hA1 corresponds to a Ki of 1.05 µM.

For the compound `CN(C)C(=O)[C@@H]1CCCN1C(=O)c1cc(N)c2nc(-c3ccc(Br)o3)nn2c1` [Example 18, 1-[8-Amino-2-(5-bromo-furan-2-yl)-[1,2,4]triazolo[1,5-a]pyridine-6-carbonyl]-pyrrolidine-2-carboxylic acid (S)-dimethylamide], the Ki in experiment [1] (setting [2]) is 0.067 µM; at hA1, 1.11 µM. For the same compound, in experiment [1], the “Select. A1/A2a” value came out at 16.5.

Turning to `CN(C)C(=O)CN(C)C(=O)c1cc(N)c2nc(-c3ccc(Br)o3)nn2c1` [Example 19, 8-Amino-2-(5-bromo-furan-2-yl)-[1,2,4]triazolo[1,5-a]pyridine-6-carboxylic acid dimethylcarbamoyl-methyl-methyl-amide], the Ki on hA1 was 3 µM.

On hA1, `CC1CCCN(C(=O)c2cc(N)c3nc(-c4ccc(Br)o4)nn3c2)C1` (stereo not drawn) [Example 20, [8-Amino-2-(5-bromo-furan-2-yl)-[1,2,4]triazolo[1,5-a]pyridin-6-yl]-(3-methyl-piperidin-1-yl)-methanone] showed an inhibition constant (Ki) of 0.803 µM.

`CCCN(C)C(=O)c1cc(N)c2nc(-c3ccc(Br)o3)nn2c1` [Example 21, 8-Amino-2-(5-bromo-furan-2-yl)-[1,2,4]triazolo[1,5-a]pyridine-6-carboxylic acid methyl-propyl-amide]: at hA1, the Ki was found to be 1.15 µM.

At hA1, `CCN(CCc1ccccn1)C(=O)c1cc(N)c2nc(-c3ccc(Br)o3)nn2c1` [Example 22, 8-Amino-2-(5-bromo-furan-2-yl)-[1,2,4]triazolo[1,5-a]pyridine-6-carboxylic acid ethyl-(2-pyridin-2-yl-ethyl)-amide] had a Ki of 1.42 µM.

`Nc1cc(C(=O)N2CCSCC2)cn2nc(-c3ccc(Br)o3)nc12` [Example 23, [8-Amino-2-(5-bromo-furan-2-yl)-[1,2,4]triazolo[1,5-a]pyridin-6-yl]-thiomorpholin-4-yl-methanone] returned a Ki on hA1 of 0.937 µM.

`CN(CCC#N)C(=O)c1cc(N)c2nc(-c3ccc(Br)o3)nn2c1` [Example 24, 8-Amino-2-(5-bromo-furan-2-yl)-[1,2,4]triazolo[1,5-a]pyridine-6-carboxylic acid (2-cyano-ethyl)-methyl-amide]: the values for the Ki (in experiment [1] (list of examples 10-108); on hA1) were 0.111 µM and 0.83 µM, respectively. The “Select. A1/A2a” value in experiment [1] was 7.5.

In turn, `CN(CCc1ccccc1)C(=O)c1cc(N)c2nc(-c3ccc(Br)o3)nn2c1` [Example 25, 8-Amino-2-(5-bromo-furan-2-yl)-[1,2,4]triazolo[1,5-a]pyridine-6-carboxylic acid methyl-phenethyl-amide] displayed a Ki on hA1 of 0.59 µM.

On hA1, `Nc1cc(C(=O)N2CCCC2)cn2nc(-c3ccccn3)nc12` [Example 26, (8-Amino-2-pyridin-2-yl-[1,2,4]triazolo[1,5-a]pyridin-6-yl)-pyrrolidin-1-yl-methanone] had an inhibition constant (Ki) of 3.57 µM.

At hA1, `Nc1cc(C(=O)N2CCCC2)cn2nc(-c3ccco3)nc12` [Example 34, (8-Amino-2-furan-2-yl-[1,2,4]triazolo[1,5-a]pyridin-6-yl)-pyrrolidin-1-yl-methanone] had a Ki of 4.2 µM.

With `Nc1cc(C(=O)N2CCCCC2)cn2nc(-c3ccco3)nc12` [Example 35, (8-Amino-2-furan-2-yl-[1,2,4]triazolo[1,5-a]pyridin-6-yl)-piperidin-1-yl-methanone], the affinity at hA1 corresponds to a Ki of 3.44 µM.

For the compound `CC1CCCN1C(=O)c1cc(N)c2nc(-c3ccco3)nn2c1` (stereo not drawn) [Example 37, (8-Amino-2-furan-2-yl-[1,2,4]triazolo[1,5-a]pyridin-6-yl)-(2-methyl-pyrrolidin-1-yl)-methanone], the Ki worked out at 0.0349 µM in experiment [1] (setting [2]) and 2.94 µM on hA1. Besides, the “Select. A1/A2a” value in experiment [1] was found to be 84.2.

For `CC1CCCCN1C(=O)c1cc(N)c2nc(-c3ccco3)nn2c1` (stereo not drawn) [Example 39, (8-Amino-2-furan-2-yl-[1,2,4]triazolo[1,5-a]pyridin-6-yl)-(2-methyl-piperidin-1-yl)-methanone], the inhibition constant Ki in experiment [1] (list of examples 10-108) stood at 0.136 µM; on hA1, 2.19 µM. In addition, in experiment [1], the “Select. A1/A2a” value is on record as 16.1.

As to `COC[C@H]1CCCN1C(=O)c1cc(N)c2nc(-c3ccco3)nn2c1` [Example 42, (8-Amino-2-furan-2-yl-[1,2,4]triazolo[1,5-a]pyridin-6-yl)-(2-S-methoxymethyl-pyrrolidin-1-yl)-methanone], the Ki in experiment [1] (setting [2]) was found to be 0.0694 µM; on hA1, 5.63 µM. Also, the “Select. A1/A2a” value in experiment [1] came out at 81.1.

Regarding `NC(=O)[C@H]1CCCN1C(=O)c1cc(N)c2nc(-c3ccco3)nn2c1` [Example 43, 1-(8-Amino-2-furan-2-yl-[1,2,4]triazolo[1,5-a]pyridine-6-carbonyl)-pyrrolidine-2-R-carboxylic acid amide], the figures for the inhibitory constant (Ki) (in experiment [1] (list of examples 10-108); on hA1) were 0.138 µM and 2.33 µM, respectively. Moreover, the “Select. A1/A2a” value in experiment [1] stood at 16.9.

`CC1CCCN(C(=O)c2cc(N)c3nc(-c4ccco4)nn3c2)C1` (stereo not drawn) [Example 46, (8-Amino-2-furan-2-yl-[1,2,4]triazolo[1,5-a]pyridin-6-yl)-(3-methyl-piperidin-1-yl)-methanone]: the Ki in experiment [1] (list of examples 10-108) was found to be 0.131 µM; on hA1, 2.69 µM. The “Select. A1/A2a” value in experiment [1] stood at 20.4.

Regarding `Nc1cc(C(=O)N(Cc2ccccc2)Cc2ccccc2)cn2nc(-c3ccco3)nc12` [Example 48, 8-Amino-2-furan-2-yl-[1,2,4]triazolo[1,5-a]pyridine-6-carboxylic acid dibenzylamide], the figures for the Ki (in experiment [1] (list of examples 10-108); on hA1) were 0.0327 µM and 0.247 µM, respectively. Also, the “Select. A1/A2a” value in experiment [1] is given as 7.5.

`Nc1cc(C(=O)N2CCCC2)cn2nc(-c3cccs3)nc12` [Example 51, (8-Amino-2-thiophen-2-yl-[1,2,4]triazolo[1,5-a]pyridin-6-yl)-pyrrolidin-1-yl-methanone]: affinity at hA1 was put at a Ki of 0.725 µM.

Compound `Cc1ccc(-c2nc3c(N)cc(C(=O)N4CCCC4)cn3n2)o1` [Example 83, [8-Amino-2-(5-methyl-furan-2-yl)-[1,2,4]triazolo[1,5-a]pyridin-6-yl]-pyrrolidin-1-yl-methanone] showed a Ki at hA1 of 1.64 µM.

Compound `Cc1ccc(-c2nc3c(N)cc(C(=O)N4CCCCC4)cn3n2)o1` [Example 84, [8-Amino-2-(5-methyl-furan-2-yl)-[1,2,4]triazolo[1,5-a]pyridin-6-yl]-piperidin-1-yl-methanone] displayed a Ki at hA1 of 1.27 µM.
